System: Sprague-Dawley rats
Experiment: Rat lick study (Davis Rig) on saccharin, citric acid and quinine
Format: in vivo
Details: water 192 licks
Protocol: Bitter blocker prepared as described above in Example 2, at 5, 25, 50 and 100 mg/L alone (called CLEARTASTE® herein) and added to each solution below:
Sucrose 250 mM; Saccharin 10 mM; MSG 150 mM; NaCl 400 and 800 mM; Citric Acid 10 mM; Quinine 0.08 and 0.16 mM.
16 naïve, adult (>50 days old, approximately 200 gram body weight), male Sprague-Dawley rats were tested in the MS-160 “Davis Rig,” manufactured by DiLog Instruments, Inc. We measured licking behavior at a resolution of 1 ms during the controlled presentation of up to 16 taste stimuli. The Davis Rig is housed inside an acoustic isolation chamber utilizing a white noise generator. Intake and exhaust fans located on opposing walls of the chamber direct constant air flow along the longitudinal axis of the stimulus delivery tray in order to reduce olfactory cues for any given stimulus. Therefore all licking behavior during brief (30 s duration) trials was motivated by orosensory/taste sensations. Rats were trained to lick during trials presenting water as the stimulus in the Davis Rig for three consecutive days prior to the start of testing. Each daily test session contained two blocks of 15 trials producing two replications of each test stimulus within each daily session. We tested the rats for a total of eight days.

SMILES: C=C[C@H]1C[N@@]2CC[C@H]1C[C@H]2[C@H](O)c1ccnc2ccc(OC)cc12 [quinine]
- licks (0.08 mM quinine alone): 170 licks
- licks (0.16 mM quinine alone): 70 licks
